This is an account of results in patent publication US11072630B2, “Fluorinated and alkylated bile acids” (Metselex, Inc., priority 2015, dated 2021).

Data set [1] deals with primary rat hepatocytes. Put plainly: DCA-induced cytotoxicity, LDH release assay. Conditions: for inhibition of DCA-induced LDH release: 100 μM bile acid, 50 μM DCA. On the technique in general: Release of lactate dehydrogenase indicates damage to the cell membrane.
Experimental: (§1) Primary rat hepatocytes were incubated with 100 μM UDCA, methylated UDCA, or no addition (control) for 12 h. Cells were then exposed to 50 μM DCA for 40 h before processing for cytotoxicity activity, including LDH (top), and adenylate kinase (middle) assays, and cell viability (bottom).
(§2) Briefly, rats were anesthetized with phenobarbital sodium (100 mg/kg body weight) injected into the peritoneal cavity. After administration of heparin (200 units/kg body weight) in the tail vein, the abdomen was opened and the portal vein exposed and cannulated. The liver was then perfused at 37° C. in situ with a calcium-free Hanks' Balanced Salt Solution (HBSS) for 10 min, and then with 0.05% collagenase type IV in calcium-present HBSS for another 10 min.
Hepatocyte suspensions were obtained by passing collagenase-digested livers through 125 μm gauze and washing cells in Complete William's E medium (William's E medium, Sigma-Aldrich Corp., St Louis, Mo., USA) supplemented with 26 mM sodium bicarbonate, 23 mM HEPES, 0.01 units/mL insulin, 2 mM L-glutamine, 10 nM dexamethasone, 100 units/mL penicillin, and 10% heat-inactivated fetal bovine serum (Invitrogen Corp., Carlsbad, Calif., USA). Viable primary rat hepatocytes were enriched by low-speed centrifugation at 200 g for 3 min. Cell viability was determined by trypan blue exclusion and was typically 80-85%. After isolation, hepatocytes were ressuspended in Complete William's E medium and plated on Primaria™ tissue culture dishes (BD Biosciences, San Jose, Calif., USA) at 5×10^4 cells/cm2.
Cells were maintained at 37° C. in a humidified atmosphere of 5% CO2 for 6 h, to allow attachment. […]
General cell death or cytotoxicity was evaluated using the lactate dehydrogenase (LDH) Cytotoxicity Detection KitPLUS (Roche Diagnostics GmbH, Mannheim, Germany), following the manufacturer's instructions. […] Finally, absorbance was measured at 490 nm, with 620 nm as reference, using a Bio-Rad model 680 microplate reader (Bio-Rad Laboratories, Hercules, Calif., USA).
The test system of data set [2] is primary rat hepatocytes. Description: Cytotoxicity of the bile acids alone in primary cultures of rat hepatocytes. The conditions noted are these: bile acid alone. From the text: MTS is bioreduced by cells into a formazan product that is soluble in tissue culture medium. […] The quantity of formazan product as measured by the amount of 490 nm absorbance is directly proportional to the number of living cells in culture.

For data set [3], the system named is primary rat hepatocytes. Description: DCA-induced cytotoxicity, adenylate kinase release (ToxiLight Assay). The conditions noted are these: 100 μM bile acid, cells exposed to 50 μM DCA. The class given is cell-based.
Experimental: as §1
(§3) Briefly, rats were anesthetized with phenobarbital sodium (100 mg/kg body weight) injected into the peritoneal cavity. After administration of heparin (200 units/kg body weight) in the tail vein, the abdomen was opened and the portal vein exposed and cannulated. […]
(§4) Hepatocyte suspensions were obtained by passing collagenase-digested livers through 125 μm gauze and washing cells in Complete William's E medium (William's E medium, Sigma-Aldrich Corp., St Louis, Mo., USA) supplemented with 26 mM sodium bicarbonate, 23 mM HEPES, 0.01 units/mL insulin, 2 mM L-glutamine, 10 nM dexamethasone, 100 units/mL penicillin, and 10% heat-inactivated fetal bovine serum (Invitrogen Corp., Carlsbad, Calif., USA). […] Cell viability was determined by trypan blue exclusion and was typically 80-85%. […]
(§5) General cell death was also determined using a bioluminescent cytolysis assay, designed to measure the release of adenylate kinase (AK) enzyme from damaged cells (ToxiLight™ BioAssay Kit, Lonza). […]
Data set [4] concerns primary rat hepatocytes. Put plainly: Cell viability with the bile acids alone in primary cultures of rat hepatocytes. The class given is cell-based. Conditions: bile acid alone.
Experimental: as §2
Hepatocyte suspensions were obtained by passing collagenase-digested livers through 125 μm gauze and washing cells in Complete William's E medium (William's E medium, Sigma-Aldrich Corp., St Louis, Mo., USA) supplemented with 26 mM sodium bicarbonate, 23 mM HEPES, 0.01 units/mL insulin, 2 mM L-glutamine, 10 nM dexamethasone, 100 units/mL penicillin, and 10% heat-inactivated fetal bovine serum (Invitrogen Corp., Carlsbad, Calif., USA). Viable primary rat hepatocytes were enriched by low-speed centrifugation at 200 g for 3 min. Cell viability was determined by trypan blue exclusion and was typically 80-85%. […]
General cell death was also determined using a bioluminescent cytolysis assay, designed to measure the release of adenylate kinase (AK) enzyme from damaged cells (ToxiLight™ BioAssay Kit, Lonza). […] The absorbance of the formazan at 490 nm can be measured directly from 96-well assay plates without additional processing. […]
Data set [5] deals with primary rat hepatocytes. Put plainly: TGF-β1-induced loss of cell viability (MTS activity). Conditions: 100 μM for 12 h, then 1 nM TGF-β1 for 36 h. The class given is cell-based. The procedure: FIG. 5. […] Primary rat hepatocytes were pre-incubated with 100 μM methylated UDCA, or no addition (control) for 12 h. Cells were then exposed to 1 nM TGF-β1 for 36 h before processing for MTS activity.

Data set [6] has as its system primary rat hepatocytes. Put plainly: DCA-induced loss of cell viability (CellTiter-Fluor Cell Viability Assay). The conditions noted are these: pretreatment with 100 μM bile acid, 50 μM DCA. It is filed as cell-based.
Experimental: as §1, §3, §4, §5

Consider `C[C@H](CCC(=O)O)[C@H]1CC[C@H]2[C@@H]3[C@@H](O)C[C@@H]4C[C@H](O)CC[C@]4(C)[C@H]3CC[C@]12C` [UDCA, ursodeoxycholic acid, reference compound], for which the “inhibition of DCA-induced LDH release” value with primary rat hepatocytes [1] is approximately 70%.
With `CO[C@H]1C[C@@H]2C[C@H](O)CC[C@]2(C)[C@H]2CC[C@]3(C)[C@@H]([C@H](C)CCC(=O)O)CC[C@H]3[C@H]12` [methylated UDCA, 3α-hydroxy,7β-methoxy-5β-cholan-24-oic acid], the cytotoxicity result in the data set with primary rat hepatocytes [2] (200 and 400 μM concentrations) is “an increase in cytotoxicity was evident”; with primary rat hepatocytes [2] (concentrations up to 100 μM) it was “remained largely unchanged”. In addition, the “inhibition of DCA-induced LDH release” value in the data set on primary rat hepatocytes [1] is reported as approximately 70%. In the data set on primary rat hepatocytes [1] (100 μM for 12 h, then 50 μM DCA for 40 h, LDH and adenylate kinase assays), the “prevention of DCA-induced cytotoxicity (FIG. 4 legend)” value was “prevents DCA-induced cytotoxicity”. In the data set on primary rat hepatocytes [3], the “protection against DCA-induced adenylate kinase release (ToxiLight Assay)” value is on record as “slightly better protection”. In the data set on primary rat hepatocytes [4] (from 10 to 100 μM concentrations), the cell viability result is recorded as “tended to increase cell viability”. Further, the viability entry in the data set with primary rat hepatocytes [4] (highest bile acid concentrations (200 and 400 μM)) was “decreased viability”. In addition, the “inhibition of TGF-β1-induced reduction in MTT metabolism / loss of cell viability” value is “effective at inhibiting TGF-β1-induced reduction in MTT metabolism” in the data set on primary rat hepatocytes [5] and “prevents TGF-β1-induced loss of cell viability” with primary rat hepatocytes [5] (listed as Methylated UDCA). Also, the “rescue of cell viability in cells exposed to DCA” value in the data set with primary rat hepatocytes [6] is recorded as “effective at rescuing cell viability”.
